Source: the supplement of paper PMC5579334

Key:
HSC2 [1] = experiment: relative IC50 (inflection point of fitted dose-response curve, CellTiter-Glo viability, 72 h; top asymptote may be below 50% inhibition); higher = less potent
Outline: (§1)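 Viability was scored by CellTiter-Glo ATP luminescence, scaled from vehicle to positive-control wells, with duplicates averaged where present. The cells, MPNST lines and primary human Schwann cells at 750–1000 per well, sat 72 h at 37 °C, 5% CO2, in 384-well plates preprinted with each compound at five concentrations in 10-fold steps. Four-parameter logistic fits were run on the data. These fits give drug sensitivity score and relative IC50 censored at the top concentration, and percent inhibition is reported at the top concentration.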

YST-1 = experiment: as above
Outline: as §1

ST8814 [2] = experiment: relative IC50 (inflection point of fitted dose-response curve, CellTox-Green cytotoxicity, 72 h; top asymptote may be below 50%); higher = less potent
Outline: (§2)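 MPNST cell lines and primary human Schwann cells were incubated 72 h at 37 °C in 384-well plates holding five 10-fold compound dilutions. CellTox-Green was added before seeding at a final 1:1000 dilution and reported fluorescence from DNA released by disrupted cells. Signals were scaled to vehicle and positive-control wells, and cultures failing plate quality control were dropped. Drug sensitivity score and relative IC50 come from four-parameter logistic fits, with IC50 censored at the top concentration.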

HSC1 [3] = experiment: as above
Outline: as §2

S1507-2 [4] = experiment: as above
Outline: as §2

HS-PSS [5] = experiment: as above
Outline: as §2

HSC2 [6] = experiment: as above
Outline: as §2

STS26T [7] = experiment: as above
Outline: as §2

ST8814 [8] = experiment: relative IC50 (inflection point of fitted dose-response curve, CellTiter-Glo viability, 72 h; top asymptote may be below 50% inhibition); higher = less potent
Outline: as §1

HSC1 [9] = experiment: as above
Outline: as §1

S1507-2 [10] = experiment: as above
Outline: as §1

HS-Sch-2 = experiment: as above
Outline: as §1

HS-PSS [11] = experiment: as above
Outline: as §1

S462 = experiment: as above
Outline: as §1

STS26T [12] = experiment: as above
Outline: as §1

Cn1cc(C2=C(c3cn(C4CCN(Cc5ccccn5)CC4)c4ccccc34)C(=O)NC2=O)c2ccccc21 [Enzastaurin]
relative IC50 (HSC2 [1]): 2910 nM | relative IC50 (YST-1): > 10000 nM | relative IC50 (ST8814 [2]): > 10000 nM | relative IC50 (HSC1 [3]): > 10000 nM | relative IC50 (S1507-2 [4]): > 10000 nM | relative IC50 (HS-PSS [5]): > 10000 nM | relative IC50 (HSC2 [6]): > 10000 nM

COc1cc2nccc(Oc3ccc(NC(=O)C4(C(=O)Nc5ccc(F)cc5)CC4)cc3)c2cc1OC [Cabozantinib]
relative IC50 (HSC2 [1]): > 1000 nM | relative IC50 (YST-1): > 1000 nM | relative IC50 (ST8814 [2]): > 1000 nM | relative IC50 (HSC1 [3]): > 1000 nM | relative IC50 (S1507-2 [4]): > 1000 nM | relative IC50 (HS-PSS [5]): > 1000 nM | relative IC50 (HSC2 [6]): > 1000 nM | relative IC50 (STS26T [7]): > 1000 nM

CCOC(=O)CCNc1cc(N2CCc3ccccc3CC2)nc(-c2ccccn2)n1 [GSK-J4]
relative IC50 (ST8814 [8]): 5900 nM | relative IC50 (HSC1 [9]): 4680 nM | relative IC50 (S1507-2 [10]): 6510 nM | relative IC50 (HS-Sch-2): 4520 nM | relative IC50 (HS-PSS [11]): 6010 nM | relative IC50 (HSC2 [1]): 4570 nM | relative IC50 (S462): 3740 nM | relative IC50 (STS26T [12]): 5270 nM | relative IC50 (YST-1): 4300 nM | relative IC50 (ST8814 [2]): 15500 nM | relative IC50 (HSC1 [3]): 23700 nM | relative IC50 (HS-PSS [5]): 27200 nM | relative IC50 (HSC2 [6]): 23700 nM | relative IC50 (STS26T [7]): 14800 nM

CS(=O)(=O)N1CCN(Cc2cc3nc(-c4cccc5[nH]ncc45)nc(N4CCOCC4)c3s2)CC1 [Pictilisib]
relative IC50 (ST8814 [8]): 789 nM | relative IC50 (HSC1 [9]): 1210 nM | relative IC50 (S1507-2 [10]): 128 nM | relative IC50 (HS-Sch-2): 1750 nM | relative IC50 (HS-PSS [11]): 1110 nM | relative IC50 (HSC2 [1]): 1550 nM | relative IC50 (S462): 1150 nM | relative IC50 (STS26T [12]): 310 nM | relative IC50 (YST-1): 445 nM | relative IC50 (ST8814 [2]): 2280 nM | relative IC50 (HSC1 [3]): > 10000 nM | relative IC50 (HS-PSS [5]): > 10000 nM | relative IC50 (HSC2 [6]): > 10000 nM | relative IC50 (STS26T [7]): > 10000 nM

COc1cc(Nc2ncc3c(n2)-c2ccc(Cl)cc2C(c2c(F)cccc2OC)=NC3)ccc1C(=O)O [Alisertib]
relative IC50 (ST8814 [8]): 288 nM | relative IC50 (HSC1 [9]): 53.4 nM | relative IC50 (S1507-2 [10]): 124 nM | relative IC50 (HS-Sch-2): 244 nM | relative IC50 (HS-PSS [11]): 1560 nM | relative IC50 (HSC2 [1]): 26.5 nM | relative IC50 (S462): 24.8 nM | relative IC50 (STS26T [12]): 89.6 nM | relative IC50 (YST-1): 31.1 nM | relative IC50 (ST8814 [2]): 265 nM | relative IC50 (HSC1 [3]): > 10000 nM | relative IC50 (HS-PSS [5]): > 10000 nM | relative IC50 (HSC2 [6]): > 10000 nM | relative IC50 (STS26T [7]): 40.4 nM

O=C1c2c(O)ccc(O)c2C(=O)c2c(NCCNCCO)ccc(NCCNCCO)c21 [Mitoxantrone]
relative IC50 (ST8814 [8]): 292 nM | relative IC50 (HSC1 [9]): 164 nM | relative IC50 (S1507-2 [10]): 244 nM | relative IC50 (HS-Sch-2): 87.4 nM | relative IC50 (HS-PSS [11]): 194 nM | relative IC50 (HSC2 [1]): 89.1 nM | relative IC50 (S462): 213 nM | relative IC50 (STS26T [12]): 366 nM | relative IC50 (YST-1): 56.6 nM | relative IC50 (ST8814 [2]): 384 nM | relative IC50 (HSC1 [3]): > 1000 nM | relative IC50 (HS-PSS [5]): > 1000 nM | relative IC50 (HSC2 [6]): > 1000 nM | relative IC50 (STS26T [7]): 380 nM

C[C@@H](C(=O)O)c1ccc(-c2ccccc2)c(F)c1 [Tarenflurbil]
relative IC50 (ST8814 [8]): > 10000 nM | relative IC50 (HSC1 [9]): > 10000 nM | relative IC50 (S1507-2 [10]): > 10000 nM | relative IC50 (HS-Sch-2): > 10000 nM | relative IC50 (HS-PSS [11]): > 10000 nM | relative IC50 (HSC2 [1]): > 10000 nM | relative IC50 (S462): > 10000 nM | relative IC50 (STS26T [12]): > 10000 nM | relative IC50 (YST-1): > 10000 nM | relative IC50 (ST8814 [2]): > 10000 nM | relative IC50 (HSC1 [3]): > 10000 nM | relative IC50 (HS-PSS [5]): > 10000 nM | relative IC50 (HSC2 [6]): > 10000 nM | relative IC50 (STS26T [7]): > 10000 nM

COc1cccc2cc(-c3nc([C@H]4CC[C@H](C(=O)O)CC4)n4ncnc(N)c34)[nH]c12 [OSI-027]
relative IC50 (ST8814 [8]): 883 nM | relative IC50 (HSC1 [9]): 712 nM | relative IC50 (S1507-2 [10]): 631 nM | relative IC50 (HS-Sch-2): 3470 nM | relative IC50 (HS-PSS [11]): 3800 nM | relative IC50 (HSC2 [1]): 1150 nM | relative IC50 (S462): 608 nM | relative IC50 (STS26T [12]): 1810 nM | relative IC50 (YST-1): 788 nM | relative IC50 (ST8814 [2]): > 10000 nM | relative IC50 (HSC1 [3]): > 10000 nM | relative IC50 (HS-PSS [5]): > 10000 nM | relative IC50 (HSC2 [6]): > 10000 nM | relative IC50 (STS26T [7]): > 10000 nM

CO[C@H]1C[C@@H]2CC[C@@H](C)[C@@](O)(O2)C(=O)C(=O)N2CCCC[C@H]2C(=O)O[C@H]([C@H](C)C[C@@H]2CC[C@@H](OC(=O)C(C)(CO)CO)[C@H](OC)C2)CC(=O)[C@H](C)/C=C(\C)[C@@H](O)[C@@H](OC)C(=O)[C@H](C)C[C@H](C)/C=C/C=C/C=C/1C [Temsirolimus]
relative IC50 (ST8814 [8]): 0.561 nM | relative IC50 (HSC1 [9]): 0.103 nM | relative IC50 (S1507-2 [10]): 0.775 nM | relative IC50 (HS-Sch-2): 1.18 nM | relative IC50 (HS-PSS [11]): 1.13 nM | relative IC50 (HSC2 [1]): 0.227 nM | relative IC50 (S462): 1.34 nM | relative IC50 (STS26T [12]): 0.237 nM | relative IC50 (YST-1): 1.38 nM | relative IC50 (ST8814 [2]): > 100 nM | relative IC50 (HSC1 [3]): > 100 nM | relative IC50 (HS-PSS [5]): > 100 nM | relative IC50 (HSC2 [6]): > 100 nM | relative IC50 (STS26T [7]): > 100 nM

O=P1(N(CCCl)CCCl)NCCCO1 (centres undefined) [Cyclophosphamide]
relative IC50 (ST8814 [8]): > 40000 nM | relative IC50 (HSC1 [9]): > 40000 nM | relative IC50 (S1507-2 [10]): > 40000 nM | relative IC50 (HS-Sch-2): > 40000 nM | relative IC50 (HS-PSS [11]): > 40000 nM | relative IC50 (HSC2 [1]): > 40000 nM | relative IC50 (S462): > 40000 nM | relative IC50 (STS26T [12]): > 40000 nM | relative IC50 (YST-1): > 40000 nM | relative IC50 (ST8814 [2]): > 40000 nM | relative IC50 (HSC1 [3]): > 40000 nM | relative IC50 (HS-PSS [5]): > 40000 nM | relative IC50 (HSC2 [6]): > 40000 nM | relative IC50 (STS26T [7]): > 40000 nM

COc1cc2ncnc(Nc3ccc(F)c(Cl)c3)c2cc1OCCCN1CCOCC1 [Gefitinib]
relative IC50 (ST8814 [8]): 3560 nM | relative IC50 (HSC1 [9]): 2940 nM | relative IC50 (S1507-2 [10]): 3600 nM | relative IC50 (HS-Sch-2): 1900 nM | relative IC50 (HS-PSS [11]): 1780 nM | relative IC50 (HSC2 [1]): 2690 nM | relative IC50 (S462): 4160 nM | relative IC50 (STS26T [12]): 3770 nM | relative IC50 (YST-1): 987 nM | relative IC50 (ST8814 [2]): 2950 nM | relative IC50 (HSC1 [3]): > 10000 nM | relative IC50 (HS-PSS [5]): > 10000 nM | relative IC50 (HSC2 [6]): > 10000 nM | relative IC50 (STS26T [7]): 3930 nM

CNNCc1ccc(C(=O)NC(C)C)cc1 [Procarbazine]
relative IC50 (ST8814 [8]): > 10000 nM | relative IC50 (HSC1 [9]): > 10000 nM | relative IC50 (S1507-2 [10]): > 10000 nM | relative IC50 (HS-Sch-2): > 10000 nM | relative IC50 (HS-PSS [11]): > 10000 nM | relative IC50 (HSC2 [1]): > 10000 nM | relative IC50 (S462): > 10000 nM | relative IC50 (STS26T [12]): > 10000 nM | relative IC50 (YST-1): > 10000 nM | relative IC50 (ST8814 [2]): > 10000 nM | relative IC50 (HSC1 [3]): > 10000 nM | relative IC50 (HS-PSS [5]): > 10000 nM | relative IC50 (HSC2 [6]): > 10000 nM | relative IC50 (STS26T [7]): > 10000 nM

CC(=O)c1c(C)c2cnc(Nc3ccc(N4CCNCC4)cn3)nc2n(C2CCCC2)c1=O [Palbociclib]
relative IC50 (ST8814 [8]): 1740 nM | relative IC50 (HSC1 [9]): 268 nM | relative IC50 (S1507-2 [10]): 987 nM | relative IC50 (HS-Sch-2): 1940 nM | relative IC50 (HS-PSS [11]): 1700 nM | relative IC50 (HSC2 [1]): 286 nM | relative IC50 (S462): 855 nM | relative IC50 (STS26T [12]): 1340 nM | relative IC50 (YST-1): 1350 nM | relative IC50 (ST8814 [2]): > 10000 nM | relative IC50 (HSC1 [3]): > 10000 nM | relative IC50 (HS-PSS [5]): > 10000 nM | relative IC50 (HSC2 [6]): > 10000 nM | relative IC50 (STS26T [7]): > 10000 nM
